For experiment [1], the target named is T1, LXRβ ligand-binding domain (Homo sapiens, UniProt P55055, DUP175-175).
T1 construct: amino acids 156-461; NP009052; made in house; host or cells: E. coli
T1 sequence (P55055 with tags, fused parts or gaps DUP175-175 limits assumed): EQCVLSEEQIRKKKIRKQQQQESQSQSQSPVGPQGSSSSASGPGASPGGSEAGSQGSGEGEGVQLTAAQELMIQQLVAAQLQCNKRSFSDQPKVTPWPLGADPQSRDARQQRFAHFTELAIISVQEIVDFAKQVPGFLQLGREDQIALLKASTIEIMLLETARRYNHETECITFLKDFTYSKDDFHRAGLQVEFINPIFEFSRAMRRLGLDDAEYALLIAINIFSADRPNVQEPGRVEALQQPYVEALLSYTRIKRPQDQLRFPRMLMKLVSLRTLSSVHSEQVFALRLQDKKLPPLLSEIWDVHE
Put plainly: TR-FRETβ activity assay (NCoA3 coactivator peptide recruitment). To be noted: TR-FRET, 1 μM 24(S)-25-epoxycholesterol prestimulation; read-out: FRETβ (EC50 range). Type of experiment: biochemical. In a few lines: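 GST-tagged human LXRβ LBD (aa 156-461, E. coli) at 76 nM with 400 nM biotinylated NCoA3 peptide in Tris/HCl pH 6.8, 240 mM KCl, BSA, 0.002% Triton-X-100, plus 1 μM 24(S)-25-epoxycholesterol as prestimulating agonist. Compounds at 50 μM down to 0.002 μM, 1 h at 4 °C. Coactivator recruitment by TR-FRET (Tb cryptate/XL665, 615/665 nm), triplicates.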

Experiment [2] addresses T2, ligand-binding domain (LBD) of LXRα (Homo sapiens, UniProt Q13133).
T2 construct: expressed in transfected cells; host or cells: HEK293
T2 sequence (Q13133 155-447): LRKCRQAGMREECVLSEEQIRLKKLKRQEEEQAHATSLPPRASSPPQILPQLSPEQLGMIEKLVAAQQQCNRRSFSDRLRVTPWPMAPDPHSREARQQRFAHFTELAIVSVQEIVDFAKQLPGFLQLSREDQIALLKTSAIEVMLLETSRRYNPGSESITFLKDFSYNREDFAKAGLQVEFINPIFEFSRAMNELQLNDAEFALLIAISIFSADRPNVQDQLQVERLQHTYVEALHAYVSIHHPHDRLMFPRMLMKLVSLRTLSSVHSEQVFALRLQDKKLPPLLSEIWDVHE
Kind of experiment: LXR Gal4 reporter transient transfection assay (LBD-M2H Gal4α). Type of experiment: cell-based. The following applies: HEK293 cells, LXRα LBD; read-out: LBD-M2H Gal4α (EC50 range). The method, then: (§1) The tested compounds were usually dissolved, tested and stored as 20 mM stock solutions in DMSO. Since sulfonyl acetic acid derivatives tend to decarboxylate under these conditions, these stock solutions were prepared, tested and stored as 20 mM DMSO stock solutions containing 100 mM trifluoroacetic Acid (5 equivalents). Sulfonyl acetic acid derivatives are shelf stable as solid at rt for long time as reported by Griesbrecht et al. (Synlett 2010:374) or Faucher et al. (J. Med. Chem. 2004; 47:18).
(§2) LXR Gal4 Reporter Transient Transfection Assays
(§3) LXRα and LXRβ activity status was determined via detection of interaction with coactivator and corepressor proteins in mammalian two-hybrid experiments (M2H). For this, via transient transfection the full length (FL) proteins of LXRα (amino acids 1-447; NP005684; SEQ ID NO:1) or LXRβ-(amino acids 1-461; NP009052; SEQ ID NO:2) or the ligand-binding domains (LBD) of LXRα (amino acids 155-447 SEQ ID NO:3) or LXRβ (amino acids 156-461; SEQ ID NO:4) were expressed from pCMV-AD (Stratagene) as fusions to the transcriptional activation domain of NFkB. As cofactors, domains of either the steroid receptor coactivator 1 (SRC1; amino acids 552-887; SEQ ID NO:5) or of the corepressor NCoR (amino acids 1906-2312; NP006302; SEQ ID NO:6) were expressed as fusions to the DNA binding domain of the yeast transcription factor GAL4 (from pCMV-BD; Stratagene). Interaction was monitored via activation of a coexpressed Firefly Luciferase Reporter gene under control of a promoter containing repetitive GAL4 response elements (vector pFRLuc; Stratagene). Transfection efficiency was controlled via cotransfection of constitutively active pRL-CMV Renila reniformis luciferase reporter (Promega). HEK293 cells were grown in minimum essential medium (MEM) with 2 mM L-glutamine and Earle's balanced salt solution supplemented with 8.3% fetal bovine serum, 0.1 mM non-essential amino acids, 1 mM sodium pyruvate, at 37° C. in 5% CO2. 3.5×10^4 cells/well were plated in 96-well cell culture plates in growth medium supplemented with 8.3% fetal bovine serum for 16-20 h to ˜90% confluency. For transfection, medium was taken off and LXR and cofactor expressing plasmids as well as the reporter plasmids are added in 30 μL OPTIMEM/well including polyethylene-imine (PEI) as vehicle. Typical amounts of plasmids transfected/well: pCMV-AD-LXR (5 ng), pCMV-BD-cofactor (5 ng), pFR-Luc (100 ng), pRL-CMV (0.5 ng). Compound stocks were prepared in DMSO, prediluted in MEM to a total volume of 120 μL, and added 4 h after addition of the transfection mixture (final vehicle concentration not exceeding 0.2%). Cells were incubated for additional 16 h, lysed for 10 min in 1× Passive Lysis Buffer (Promega) and Firefly and Renilla luciferase activities were measured sequentially in the same cell extract using buffers containing D-luciferine and coelenterazine, respectively. Measurements of luminescence were done in a BMG-luminometer.

Experiment [3] addresses T3, ligand-binding domain (LBD) of LXRβ (Homo sapiens, UniProt P55055, DUP175-175).
T3 construct: LXRβ (amino acids 156-461); expressed in transfected cells; host or cells: HEK293
T3 sequence (P55055 with tags, fused parts or gaps DUP175-175 limits assumed): T1 sequence (P55055 with tags, fused parts or gaps DUP175-175 limits assumed)
Put plainly: LXR Gal4 reporter transient transfection assay (LBD-M2H Gal4β). To be noted: HEK293 cells, LXRβ LBD; read-out: LBD-M2H Gal4β (EC50 range). Type of experiment: cell-based. As for the experimental part:
as §1, §2, §3

Take `Cc1ccc(S(=O)(=O)n2c(-c3ccc(CC(C)(C)C(=O)O)s3)c(-c3ccsc3C#N)c3ccccc32)cc1` [3/16]: the figures for the EC50 in experiment [1], in experiment [2] and in experiment [3] were 1000 to 10000 nM, 100 to 1000 nM and 100 to 1000 nM, respectively.
For the compound `Cc1ccc(S(=O)(=O)n2c(-c3cc(C4CC4C(=O)O)cs3)c(-c3ccsc3C#N)c3ccccc32)cc1` (stereo not drawn) [3/17], the EC50 (as a rule, the concentration that produces a half-maximal response) in experiment [1] is 1000 to 10000 nM; in experiment [2] it was 100 to 1000 nM; in experiment [3], below 100 nM.
In the same order, the values of `Cc1ccc(S(=O)(=O)n2c(-c3cccc(/C=C/C(=O)O)c3)c(-c3ccsc3C#N)c3ccccc32)cc1` [3/18] are 1000 to 10000 nM, 100 to 1000 nM and below 100 nM.
For the compound `Cc1ccc(S(=O)(=O)n2c(-c3ccc(/C=C/C(=O)O)s3)c(-c3ccsc3C#N)c3ccccc32)cc1` [3/19], the results for the half-maximal effective concentration (EC50) in experiment [1], in experiment [2] and in experiment [3] were 1000 to 10000 nM, 100 to 1000 nM and 100 to 1000 nM, respectively.
With `Cc1ccc(S(=O)(=O)n2c(-c3cccc(C(C)(C)C(=O)O)c3)c(-c3ccsc3C#N)c3ccccc32)cc1` [3/20], the EC50 was 1000 to 10000 nM in experiment [1], 100 to 1000 nM in experiment [2] and below 100 nM in experiment [3].
Regarding `N#Cc1sccc1-c1c(-c2cccc(OCC(=O)O)c2)n(S(=O)(=O)c2ccc(Cl)cc2)c2ccccc12` [3/51], the EC50 in experiment [1] lay in the range of 1000 to 10000 nM; in experiment [2], 100 to 1000 nM; in experiment [3] it was 100 to 1000 nM.
`N#Cc1sccc1-c1c(-c2cccs2)n(S(=O)(=O)c2ccc(Cl)cc2)c2cc(O)ccc12` [13/1]: the EC50 in experiment [1] was 1000 to 10000 nM; in experiment [2], below 100 nM; in experiment [3] it was below 100 nM.
`N#Cc1sccc1-c1c(-c2cccs2)n(S(=O)(=O)c2ccc(Cl)cc2)c2ccc(OCCCC(=O)O)cc12` [15/1]: the EC50 in experiment [1] is 1000 to 10000 nM; in experiment [2], 100 to 1000 nM; in experiment [3] it was 100 to 1000 nM.
Turning to `N#Cc1sccc1-c1c(-c2cccs2)n(S(=O)(=O)c2ccc(Cl)cc2)c2ccc(OCCCCC(=O)O)cc12` [15/2], the figures for the EC50 in experiment [1], in experiment [2] and in experiment [3] were above 10000 nM, 100 to 1000 nM and 100 to 1000 nM, respectively.
As for `N#Cc1sccc1-c1c(-c2cccs2)n(S(=O)(=O)c2ccc(Cl)cc2)c2cc(OCCCC(=O)O)ccc12` [15/4], the results for the concentration for a half-maximal effect (EC50) in experiment [1], in experiment [2] and in experiment [3] were 1000 to 10000 nM, 100 to 1000 nM and below 100 nM, respectively.
For `N#Cc1sccc1-c1c(-c2cccs2)n(S(=O)(=O)c2ccc(Cl)cc2)c2cc(OCCCCC(=O)O)ccc12` [15/5] the same measures were 1000 to 10000 nM, below 100 nM and below 100 nM.
For `N#Cc1ccncc1-c1c(-c2cccs2)n(S(=O)(=O)c2ccc(Cl)cc2)c2ccccc12` [20/2] the same measures were 1000 to 10000 nM, 100 to 1000 nM and below 100 nM.
In the same order, the values of `O=S(=O)(c1ccc(Cl)cc1)n1c(-c2cccs2)c(-c2ccsc2C(F)F)c2ccccc21` [20/3] are 100 to 1000 nM, below 100 nM and below 100 nM.
Consider `N#Cc1cscc1-c1c(-c2cccs2)n(S(=O)(=O)c2ccc(Cl)cc2)c2ccccc12` [20/4], for which the values for the EC50 in experiment [1], in experiment [2] and in experiment [3] were 1000 to 10000 nM, below 100 nM and below 100 nM, respectively.
For the compound `CS(=O)(=O)c1ccccc1-c1c(-c2cccs2)n(S(=O)(=O)c2ccc(Cl)cc2)c2ccccc12` [20/5], the values for the EC50 in experiment [1], in experiment [2] and in experiment [3] were 1000 to 10000 nM, 100 to 1000 nM and 100 to 1000 nM, respectively.
Regarding `N#Cc1cc(F)ccc1-c1c(-c2cccs2)n(S(=O)(=O)c2ccc(Cl)cc2)c2ccccc12` [20/6], the concentration for a half-maximal effect (EC50) in experiment [1] is 100 to 1000 nM; in experiment [2], 100 to 1000 nM; in experiment [3] it was below 100 nM.
Regarding `N#Cc1nccnc1-c1c(-c2cccs2)n(S(=O)(=O)c2ccc(Cl)cc2)c2ccccc12` [20/7], the EC50 in experiment [1] is 1000 to 10000 nM; in experiment [2], 100 to 1000 nM; in experiment [3] it was below 100 nM.
In the case of `N#Cc1sccc1-c1c(-c2cccs2)n(S(=O)(=O)c2ccc(F)cc2)c2ccccc12` [20/11], the concentration for a half-maximal effect (EC50) in experiment [1] was 100 to 1000 nM; in experiment [2], below 100 nM; in experiment [3], below 100 nM.
Take `N#Cc1sccc1-c1c(-c2cccs2)n(S(=O)(=O)c2ccc(F)cc2F)c2ccccc12` [20/12]: the EC50 in experiment [1] is 1000 to 10000 nM; in experiment [2] it was below 100 nM; in experiment [3], below 100 nM.
Take `N#Cc1sccc1-c1c(-c2cccs2)n(S(=O)(=O)c2ccc(Cl)cc2)c2ccccc12` [20/13]: the half-maximal effective concentration (EC50) was 100 to 1000 nM in experiment [1], below 100 nM in experiment [2] and below 100 nM in experiment [3].
On to `COc1ccc(S(=O)(=O)n2c(-c3ccccc3)c(C3=C(C#N)CCCC3)c3ccccc32)cc1` [20/16], for which the EC50 in experiment [1] lay within 1000 to 10000 nM; in experiment [2], 100 to 1000 nM; in experiment [3] it was 100 to 1000 nM.
In the case of `COc1ccc(S(=O)(=O)n2c(-c3ccccc3)c(C3=C(C#N)c4ccccc4CC3)c3ccccc32)cc1` [20/19], the half-maximal effective concentration (EC50) in experiment [1] was above 10000 nM; in experiment [2] it was 100 to 1000 nM; in experiment [3] it was 100 to 1000 nM.
Turning to `COc1ccc(S(=O)(=O)n2c(-c3ccccc3)c(-c3ccc4ncccc4c3C#N)c3ccccc32)cc1` [20/20], the EC50 lay in the range of 1000 to 10000 nM in experiment [1], 1000 to 10000 nM in experiment [2] and 100 to 1000 nM in experiment [3].
Consider `COc1ccc(S(=O)(=O)n2c(-c3ccccc3)c(-c3ccsc3C)c3ccccc32)cc1` [20/21], for which the 50% effective concentration (EC50) in experiment [1] is 1000 to 10000 nM; in experiment [2], 100 to 1000 nM; in experiment [3], below 100 nM.
In the same order, the values of `COc1ccc(S(=O)(=O)n2c(-c3ccccc3)c(-c3ccsc3OC)c3ccccc32)cc1` [20/22] are 100 to 1000 nM, 100 to 1000 nM and 100 to 1000 nM.
In the same order, the values of `COc1ccc(S(=O)(=O)n2c(-c3ccccc3)c(-c3cc(C)sc3C#N)c3ccccc32)cc1` [20/23] are 1000 to 10000 nM, 100 to 1000 nM and 100 to 1000 nM.
In the same order, the values of `N#Cc1ccc(OCC(=O)O)cc1-c1c(-c2cccs2)n(S(=O)(=O)c2ccc(Cl)cc2)c2ccccc12` [21/1] are 1000 to 10000 nM, 1000 to 10000 nM and 1000 to 10000 nM.
`N#Cc1c(OCC(=O)O)cccc1-c1c(-c2cccs2)n(S(=O)(=O)c2ccc(Cl)cc2)c2ccccc12` [21/2]: the half-maximal effective concentration (EC50) in experiment [1], in experiment [2] and in experiment [3] was 1000 to 10000 nM each time.

Source of the values: patent US11618747B2, “LXR modulators with bicyclic core moiety” (OrsoBio, Inc., priority 2018, dated 2023).
